Like-named read-outs stand apart in the source and are kept apart here.
What was measured:
[1] = molecular target: T1, HCV NS3/4A protease complex, BMS strain (UniProt P27958, C1454S/C1711G, species not given); test: FRET peptide assay to monitor HCV NS3/4A proteolytic activity (BMS strain); assay type: biochemical, HCV genotype 1a; conditions: read-out: IC50 Range, HCV NS3/4A enzyme assay
T1 construct: other: HCV NS3/4A enzyme assay; class symbols; numeric values; fused on or other part: three-lysine solubilising tail at the C-terminus of NS4A; purified on Ni-NTA from the pET21b vector (His tag implied)
Description: HCV NS3 protease complexes, derived from the BMS strain, H77 strain or J4L6S strain, were generated, as described below. These purified recombinant proteins were generated for use in a homogeneous assay (see below) to provide an indication of how effective compounds of the present disclosure would be in inhibiting HCV NS3 proteolytic activity.
Serum from an HCV-infected patient was obtained from Dr. T. Wright, San Francisco Hospital. An engineered full-length cDNA (compliment deoxyribonucleic acid) template of the HCV genome (BMS strain) was constructed from DNA fragments obtained by reverse transcription-PCR (RT-PCR) of serum RNA (ribonucleic acid) and using primers selected on the basis of homology between other genotype 1a strains. From the determination of the entire genome sequence, a genotype 1a was assigned to the HCV isolate according to the classification of Simmonds et al. (See P Simmonds, K A Rose, S Graham, S W Chan, F McOmish, B C Dow, E A Follett, P L Yap and H Marsden, J. Clin. Microbiol., 31(6), 1493-1503 (1993)). […] The infectious clones, H77 (1a genotype) and J4L6S (1b genotype) were obtained from R. Purcell (NIH) and the sequences are published in Genbank (AAB67036, see Yanagi, M., Purcell, R. H., Emerson, S. U. and Buldi, J. Proc. Natl. Acad. Sci. U.S.A. 94(16),8738-8743 (1997); AF054247, see Yanagi, M., St Claire, M., Shapiro, M., Emerson, S. U., Purcell, R. H. and Bukh, J, Virology 244 (1), 161-172. (1998)).
NS3/4A protease complex-containing fractions were pooled and loaded on a desalting column Superdex-S200 pre-equilibrated with buffer D (25 mM HEPES, pH 7.5, 20% glycerol, 300 mM NaCl, 0.2% TritonX-100, 10 mM βMB). Sample was loaded at a flow rate of 1 mL/min. NS3/4A protease complex-containing fractions were pooled and concentrated to approximately 0.5 mg/ml. The purity of the NS3/4A protease complexes, derived from the BMS, H77 and J4L6S strains, were judged to be greater than 90% by SDS-PAGE and mass spectrometry analyses. The enzyme was stored at −80° C., thawed on ice and diluted prior to use in assay buffer.
The purpose of this in vitro assay was to measure the inhibition of HCV NS3 protease complexes, derived from the BMS strain, H77 strain or J4L6S strain, as described above, by compounds of the present disclosure. This assay provides an indication of how effective compounds of the present disclosure would be in inhibiting HCV NS3 proteolytic activity.
In order to monitor HCV NS3/4A protease activity, an NS3/4A peptide substrate was used. The substrate was RET S1 (Resonance Energy Transfer Depsipeptide Substrate; AnaSpec, Inc. cat #22991)(FRET peptide), described by Taliani et al. in Anal. Biochem. 240(2):60-67 (1996). The sequence of this peptide is loosely based on the NS4A/NS4B natural cleavage site for the HCV NS3 protease except there is an ester linkage rather than an amide bond at the cleavage site. The peptide also contains a fluorescence donor, EDANS, near one end of the peptide and an acceptor, DABCYL, near the other end. The fluorescence of the peptide is quenched by […] resonance energy transfer (RET) between the donor and the acceptor, but as the NS3 protease cleaves the peptide the products are released from RET quenching and the fluorescence of the donor becomes apparent.
The peptide substrate was incubated with one of the three recombinant NS3/4A protease complexes, in the absence or presence of a compound of the present disclosure. The inhibitory effects of a compound were determined by monitoring the formation of fluorescent reaction product in real time using a Cytofluor Series 4000.
Assay buffer: 50 mM HEPES, pH 7.5; 0.15 M NaCl; 0.1% Triton; 15% Glycerol; 10 mM βME. Substrate: 2 μM final concentration (from a 2 mM stock solution in DMSO stored at −20° C.). HCV NS3/4A protease type 1a (1b), 2-3 nM final concentration (from a 5 μM stock solution in 25 mM HEPES, pH 7.5, 20% glycerol, 300 mM NaCl, 0.2% Triton-X100, 10 mM βME). […]

[2] = tested on: HCV replicon in HUH-7 cells; test: HCV replicon FRET assay; assay type: cell-based, HCV strain 1b; conditions: Hepatitis C virus
Description: An HCV replicon whole cell system was established as described by Lohmann V, Korner F, Koch J, Herian U, Theilmann L, Bartenschlager R., Science 285(5424):110-3 (1999). This system enabled us to evaluate the effects of our HCV Protease compounds on HCV RNA replication. Briefly, using the HCV strain 1b sequence described in the Lohmann paper (Assession number:AJ238799), an HCV cDNA was synthesized by Operon Technologies, Inc. (Alameda, Calif.), and the full-length replicon was then assembled in plasmid pGem9zf(+) (Promega, Madison, Wis.) using standard molecular biology techniques. The replicon consists of (i) the HCV 5′ UTR fused to the first 12 amino acids of the capsid protein, (ii) the neomycin phosphotransferase gene (neo), (iii) the IRES from encephalomyocarditis virus (EMCV), and (iv) HCV NS3 to NS5B genes and the HCV 3′ UTR. Plasmid DNAs were linearized with ScaI and RNA transcripts were synthesized in vitro using the T7 MegaScript transcription kit (Ambion, Austin, Tex.) according to manufacturer's directions. In vitro transcripts of the eDNA were transfected into the human hepatoma cell line, HUH-7. […] Resulting cell lines were characterized for positive and negative strand RNA production and protein production over time.
The HCV replicon FRET assay was developed to monitor the inhibitory effects of compounds described in the disclosure on HCV viral replication. HUH-7 cells, constitutively expressing the HCV replicon, were grown in Dulbecco's Modified Eagle Media (DMEM) (Gibco-BRL) containing 10% Fetal calf serum (FCS) (Sigma) and 1 mg/ml G418 (Gibco-BRL). Cells were seeded the night before (1.5×10^4 cells/well) in 96-well tissue-culture sterile plates. Compound and no compound controls were prepared in DMEM containing 4% FCS, 1:100 Penicillin/Streptomysin (Gibco-BRL), 1:100 L-glutamine and 5% DMSO in the dilution plate (0.5% DMSO final concentration in the assay). Compound/DMSO mixes were added to the cells and incubated for 4 days at 37° C. After 4 days, cells were first assessed for cytotoxicity using alamar Blue (Trek Diagnotstic Systems) for a CC50 reading. The toxicity of compound (CC50) was determined by adding 1/10th volume of alamar Blue to the media incubating the cells. After 4 h, the fluorescence signal from each well was read, with an excitation wavelength at 530 nm and an emission wavelength of 580 nm, using the Cytofluor Series 4000 (Perspective Biosystems). Plates were then rinsed thoroughly with Phosphate-Buffered Saline (PBS) (3 times 150 μl).

Structure (SMILES)	IC50 ([1]; class symbols)	EC50 ([2]; Huh-7, read-out: EC50 Range)	IC50 ([1]; numeric values)	EC50 ([2]; Huh-7, HCV replicon cell assay, numeric values, read-out: EC50 Range)
COc1cnc(O[C@@H]2C[C@@H](C(=O)N[C@]3(C(=O)NS(=O)(=O)C4CC4)C[C@H]3CC(F)F)N(C(=O)[C@@H](Nc3nc(-c4ccc(F)c(C(F)(F)F)c4)cs3)C(C)(C)C)C2)c2cc(Cl)ccc12 [Example 97, (2S,4R)-4-(7-chloro-4-methoxyisoquinolin-1-yloxy)-N-((1R,2S)-1-(cyclopropylsulfonylcarbamoyl)-2-(2,2-difluoroethyl)cyclopropyl)-1-((S)-2-(4-(4-fluoro-3-(trifluoromethyl)phenyl)thiazol-2-ylamino)-3,3-dimethylbutanoyl)pyrrolidine-2-carboxamide]	1 to 20 nM	1 to 50 nM	–	–
C=C[C@@H]1C[C@]1(NC(=O)[C@@H]1C[C@@H](Oc2ncc(OC)c3ccc(Cl)cc23)CN1C(=O)[C@@H](Nc1nc(-c2ccc(N(CC)CC)cc2)cs1)C(C)(C)C)C(=O)NS(=O)(=O)C1CC1 [Example 44]	1 to 20 nM	1 to 50 nM	–	–
C=C[C@@H]1C[C@]1(NC(=O)[C@@H]1C[C@@H](Oc2ncc(OC)c3ccc(Cl)cc23)CN1C(=O)[C@@H](Nc1nc(-c2c(OC)cccc2OC)cs1)C(C)(C)C)C(=O)NS(=O)(=O)C1CC1 [Example 58]	1 to 20 nM	1 to 50 nM	–	–
C=C[C@@H]1C[C@]1(NC(=O)[C@@H]1C[C@@H](Oc2ncc(OC)c3ccc(Cl)cc23)CN1C(=O)[C@@H](Nc1nc(-c2ccc(OC(F)F)cc2)cs1)C(C)(C)C)C(=O)NS(=O)(=O)C1CC1 [Example 8]	1 to 20 nM	1 to 50 nM	–	–
C=C[C@@H]1C[C@]1(NC(=O)[C@@H]1C[C@@H](Oc2ncc(OC)c3ccc(Cl)cc23)CN1C(=O)[C@@H](Nc1nc(-c2ccccc2Cl)cs1)C(C)(C)C)C(=O)NS(=O)(=O)C1CC1 [Example 49]	1 to 20 nM	1 to 50 nM	–	–
C=C[C@@H]1C[C@]1(NC(=O)[C@@H]1C[C@@H](Oc2ncc(OC)c3ccc(Cl)cc23)CN1C(=O)[C@@H](Nc1nc(-c2cc(F)ccc2OC)cs1)C(C)(C)C)C(=O)NS(=O)(=O)C1CC1 [Example 56]	1 to 20 nM	1 to 50 nM	–	–
C=C[C@@H]1C[C@]1(NC(=O)[C@@H]1C[C@@H](Oc2ncc(OC)c3ccc(Cl)cc23)CN1C(=O)[C@@H](Nc1nc(-c2ccc(OC)cc2)cs1)C(C)(C)C)C(=O)NS(=O)(=O)C1CC1 [Example 7]	1 to 20 nM	1 to 50 nM	–	–
C=C[C@@H]1C[C@]1(NC(=O)[C@@H]1C[C@@H](Oc2ncc(OC)c3ccc(Cl)cc23)CN1C(=O)C(Nc1ccc(-c2ccccc2)c(OC)c1)C(C)(C)C)C(=O)NS(=O)(=O)C1CC1 (single isomer, unassigned) [Example 18A]	–	–	54 nM	78.1 nM
C=C[C@@H]1C[C@]1(NC(=O)[C@@H]1C[C@@H](Oc2cc(-c3ccccc3)nc3cc(OC)ccc23)CN1C(=O)[C@@H](Nc1nc(-c2ccccc2OC)cs1)C(C)(C)C)C(=O)NS(=O)(=O)C1CC1 [Example 2]	1 to 20 nM	1 to 50 nM	–	–
C=C[C@@H]1C[C@]1(NC(=O)[C@@H]1C[C@@H](Oc2ncc(OC)c3ccc(Cl)cc23)CN1C(=O)[C@@H](Nc1nc(-c2ccc3c(c2)OCO3)cs1)C(C)(C)C)C(=O)NS(=O)(=O)C1CC1 [Example 40]	1 to 20 nM	1 to 50 nM	–	–
C=C[C@@H]1C[C@]1(NC(=O)[C@@H]1C[C@@H](Oc2ncc(OC)c3ccc(Cl)cc23)CN1C(=O)[C@@H](Nc1nc(-c2ccc(Br)cc2)cs1)C(C)(C)C)C(=O)NS(=O)(=O)C1CC1 [Example 31]	1 to 20 nM	1 to 50 nM	–	–
C=C[C@@H]1C[C@]1(NC(=O)[C@@H]1C[C@@H](Oc2ncc(OC)c3ccc(Cl)cc23)CN1C(=O)[C@@H](Nc1nc(-c2ccc(OC)cc2F)cs1)C(C)(C)C)C(=O)NS(=O)(=O)C1CC1 [Example 51]	1 to 20 nM	1 to 50 nM	–	–
C=C[C@@H]1C[C@]1(NC(=O)[C@@H]1C[C@@H](Oc2ncc(OC)c3ccc(Cl)cc23)CN1C(=O)[C@@H](Nc1nc(-c2ccc(OC)c(F)c2)cs1)C(C)(C)C)C(=O)NS(=O)(=O)C1CC1 [Example 64]	1 to 20 nM	–	–	–
C=C[C@@H]1C[C@]1(NC(=O)[C@@H]1C[C@@H](Oc2ncc(OC)c3ccc(Cl)cc23)CN1C(=O)[C@@H](Nc1nc(-c2cc(-c3ccc(Cl)cc3Cl)no2)cs1)C(C)(C)C)C(=O)NS(=O)(=O)C1CC1 [Example 86]	–	–	2 nM	–
C=C[C@@H]1C[C@]1(NC(=O)[C@@H]1C[C@@H](Oc2ncc(OC)c3ccc(Cl)cc23)CN1C(=O)[C@@H](Nc1nc(-c2cc(F)ccc2F)cs1)C(C)(C)C)C(=O)NS(=O)(=O)C1CC1 [Example 61]	1 to 20 nM	–	–	–
C=C[C@@H]1C[C@]1(NC(=O)[C@@H]1C[C@@H](Oc2ncc(OC)c3ccc(Cl)cc23)CN1C(=O)[C@@H](Nc1nc(-c2cc(F)c(F)c(F)c2)cs1)C(C)(C)C)C(=O)NS(=O)(=O)C1CC1 [Example 79]	1 to 20 nM	–	–	–
C=C[C@@H]1C[C@]1(NC(=O)[C@@H]1C[C@@H](Oc2ncc(OC)c3ccc(Cl)cc23)CN1C(=O)[C@@H](Nc1nc(-c2cc(C(F)(F)F)ccc2Cl)cs1)C(C)(C)C)C(=O)NS(=O)(=O)C1CC1 [Example 69]	1 to 20 nM	–	–	–
C=C[C@@H]1C[C@]1(NC(=O)[C@@H]1C[C@@H](Oc2ncc(OC)c3ccc(Cl)cc23)CN1C(=O)[C@@H](Nc1nc(-c2cccc(F)c2F)cs1)C(C)(C)C)C(=O)NS(=O)(=O)C1CC1 [Example 80]	1 to 20 nM	–	–	–
